Measurements published in patent publication US9636299B2, “Method for treating diabetic retinopathy” (XAVIER UNIVERSITY OF LOUISIANA, priority 2012, dated 2017).
Residues, ends and D or L forms follow the SMILES beside them.

Assays:
Format in all cases: in vivo, mouse
heparanase = assay: Laser photocoagulation-induced retinal injury in mice, heparanase real-time RT-PCR; conditions: apoEdp 40 mg/kg intraperitoneally once each day for 7 days, vs mice without apoEdp
Protocol: Laser Photocoagulation-Induced Retinopathy. Female mice (C57BL/6J), aged 6-8 weeks, were used for retinal laser photocoagulation studies. The mice were treated and maintained in accordance with the ARVO Statement for the Use of Animals in Ophthalmic and Vision Research. The mice were anesthetized by intraperitoneal injection of a mixture of ketamine (100 mg/kg; Warner Lambert Co., Morris Plains, N.J.) and xylazine (10 mg/kg; Bayer AG, Leverkusen, Germany), and the pupils dilated with 2.5% tropicamide (Alcon, Fort Worth, Tex.). […]
RNA Extraction, Reverse Transcription, & PCR. […] Gene expression was measured at RNA level per 100 ng of total RNA using one-step RT-PCR kit (Bio-Rad, Hercules, Calif.). Four host genes (mouse GAPDH, mouse MMP2, mouse HPSE-1 (heparanase-1), and mouse MMP9) were analyzed to confirm relative quantitative expression levels. The primer pairs used were specifically designed and synthesized by Qiagen GmbH, Hilden, Germany (Quantitech Primer assay kit, for each host gene, catalog numbers QT01658692, QT00088396, QT00009555, and QT00040040, respectively). One-step Real-time quantitative RT-PCR reactions were performed in a 50-μL volume containing a solution of 1× supermix (iQ SYBR Green; Bio-Rad, Hercules, Calif.), 1 μM mix of forward and reverse primers, and 5 μL total RNA. […] Relative quantitative expression levels were determined for each gene. […]

occludin = assay: Streptozotocin-induced diabetic mice, retinal occludin mRNA by real-time RT-PCR; conditions: 14 days, vs diabetic non-treated
Protocol: RNA Extraction, Reverse Transcription, & PCR. Following euthanasia, mouse eyes were enucleated and placed immediately into RNAlater® RNA stabilization reagent (Qiagen, Hilden, Germany). Intraocular fluids were aspirated and pooled, and total cellular RNA was isolated using an RNeasy® Mini Kit (Qiagen) according to the manufacturer's instructions. Gene expression was measured at RNA level per 100 ng of total RNA using one-step RT-PCR kit (Bio-Rad, Hercules, Calif.). Four host genes (mouse GAPDH, mouse MMP2, mouse HPSE-1 (heparanase-1), and mouse MMP9) were analyzed to confirm relative quantitative expression levels. The primer pairs used were specifically designed and synthesized by Qiagen GmbH, Hilden, Germany (Quantitech Primer assay kit, for each host gene, catalog numbers QT01658692, QT00088396, QT00009555, and QT00040040, respectively). One-step Real-time quantitative RT-PCR reactions were performed in a 50-μL volume containing a solution of 1× supermix (iQ SYBR Green; Bio-Rad, Hercules, Calif.), 1 μM mix of forward and reverse primers, and 5 μL total RNA. A four-step protocol was used: denaturation, 3 minutes at 95° C.; amplification and quantification, 40 cycles of 15 seconds at 95° C. followed by 30 seconds at 60° C.; melting curve, 60 to 95° C. with a heating rate of 0.5° C. per second; followed by cooling (MyiQ Single Color Real-Time PCR Detection System; Bio-Rad). […]

zona occludin 1 (ZO-1) = assay: Streptozotocin-induced diabetic mice, retinal ZO-1 immunohistochemistry; conditions: 14 consecutive days, vs untreated diabetic
Protocol: Streptozotocin (STZ) induced diabetes. Twelve week old C57Bl/6 mice were used for this study. Mice were induced to have diabetes by intraperitoneal injection of 170 μg/g of streptozotocin (Sigma Aldrich, St. Louis, Mo.). Controls were injected with a vehicle (0.01M sodium citrate buffer). On the third day after STZ treatment, mice tail veins were bled to test the hyperglycemic status using blood sugar detection kit (Lifescan; Johnson & Johnson, Milpitas, Calif.). Mice with blood sugar levels of >300 mg/dL on the third day after STZ treatment were considered diabetic. Eye drop treatment containing 1% apoEdp or vehicle PBS was continued 4 times a day for 14 consecutive days. Intra-peritoneal (i/p) injection containing 40 mg/kg of apoEdp or vehicle control PBS was administered once daily for 14 consecutive days. On the 15th day post-treatment, mice were euthanized, their eyes enucleated, and the retinas dissected out to use for mRNA or Western blot analysis.
Immunohistochemistry. […]
To investigate the effect of apoEdp on attenuation of ZO-1 loss, immunohistochemical detection of ZO-1 was performed in formalin-fixed de-paraffinized sections of mouse retinas of different experimental groups. […] The number of positive cells was determined in the high-power field (×400) for the retinas.

CC(=O)N[C@@H](CC(C)C)C(=O)N[C@@H](CCCNC(=N)N)C(=O)N[C@@H](CCCCN)C(=O)N[C@@H](CC(C)C)C(=O)N[C@@H](CCCNC(=N)N)C(=O)N[C@@H](CCCCN)C(=O)N[C@@H](CCCNC(=N)N)C(=O)N[C@@H](CC(C)C)C(=O)N[C@@H](CC(C)C)C(=O)N[C@@H](CC(C)C)C(=O)N[C@@H](CCCNC(=N)N)C(=O)N[C@@H](CCCCN)C(=O)N[C@@H](CC(C)C)C(=O)N[C@@H](CCCNC(=N)N)C(=O)N[C@@H](CCCCN)C(=O)N[C@@H](CCCNC(=N)N)C(=O)N[C@@H](CC(C)C)C(=O)N[C@@H](CC(C)C)C(N)=O [apoEdp, Ac-LRKLRKRLLLRKLRKRLL-amide] (Ac-LRKLRKRLLLRKLRKRLL-NH2)
Expression of heparanase in retina (heparanase): dramatically reduced | Down-regulation of occludin-specific mRNA in retina (occludin; 1% apoEdp eye drop 4 times a day): significantly inhibited the down-regulation | Down-regulation of occludin-specific mRNA in retina (occludin; i/p injection 40 mg/kg daily): significantly inhibited the down-regulation | Number of ZO-1 positive cells in retina (high-power field ×400) (zona occludin 1 (ZO-1); i/p injections 40 mg/kg): significantly increased the number of positive cells | Number of ZO-1 positive cells in retina (high-power field ×400) (zona occludin 1 (ZO-1); topical 1% apoEdp drops): significantly increased the number of positive cells
